From the NIST ThermoML archive (doi:10.1016/j.jct.2013.10.025)

Experiment: xn = mol fraction of the nth substance listed
Settings: 101 kPa, Liquid; for viscosity: Capillary tube (Ostwald / Ubbelohde) method; for speed of sound: Sing-around technique in a fixed-path interferometer; for mass density: Vibrating tube method

C1CCOC1 [tetrahydrofuran] + CCCCCCCCO
Settings	mass density [kg/m3]	speed of sound [m/s]	viscosity [mPa·s]
298.15 K, x1 = 0.0541	823.522	1344.5	6.305
298.15 K, x1 = 0.1044	825.135	1341.3	5.403
298.15 K, x1 = 0.1535	826.78	1337.5	4.698
298.15 K, x1 = 0.205	828.609	1333.5	4.025
298.15 K, x1 = 0.2574	830.564	1329.8	3.477
298.15 K, x1 = 0.3054	832.449	1326.5	2.996
298.15 K, x1 = 0.4003	836.541	1319.6	2.307
298.15 K, x1 = 0.5004	841.464	1312.2	1.747
298.15 K, x1 = 0.6111	847.802	1302.9	1.271
298.15 K, x1 = 0.7032	853.984	1295.5	0.996
298.15 K, x1 = 0.8116	862.541	1287.9	0.747
298.15 K, x1 = 0.9048	871.362	1281.7	0.589
303.15 K, x1 = 0.0541	819.992	1327.7	5.227
303.15 K, x1 = 0.1044	821.552	1324.3	4.562
303.15 K, x1 = 0.1535	823.145	1320.4	3.988
303.15 K, x1 = 0.205	824.915	1316	3.395
303.15 K, x1 = 0.2574	826.809	1312.4	3.014
303.15 K, x1 = 0.3054	828.634	1308.7	2.602
303.15 K, x1 = 0.4003	832.585	1301.4	2.089
303.15 K, x1 = 0.5004	837.343	1293.4	1.566
303.15 K, x1 = 0.6111	843.471	1283.4	1.173
303.15 K, x1 = 0.7032	849.444	1275.5	0.931
303.15 K, x1 = 0.8116	857.718	1266.9	0.715
303.15 K, x1 = 0.9048	866.235	1259.7	0.566
308.15 K, x1 = 0.0541	816.44	1310.7	4.208
308.15 K, x1 = 0.1044	817.948	1307.3	3.709
308.15 K, x1 = 0.1535	819.488	1303	3.217
308.15 K, x1 = 0.205	821.202	1298.8	2.779
308.15 K, x1 = 0.2574	823.029	1294.7	2.46
308.15 K, x1 = 0.3054	824.796	1290.9	2.176
308.15 K, x1 = 0.4003	828.614	1283.1	1.748
308.15 K, x1 = 0.5004	833.216	1274.6	1.348
308.15 K, x1 = 0.6111	839.116	1264.1	1.014
308.15 K, x1 = 0.7032	844.874	1255.2	0.819
308.15 K, x1 = 0.8116	852.874	1244.9	0.632
308.15 K, x1 = 0.9048	861.083	1237	0.514
313.15 K, x1 = 0.0541	812.862	1294.2	–
313.15 K, x1 = 0.1044	814.315	1290.6	–
313.15 K, x1 = 0.1535	815.803	1286.2	–
313.15 K, x1 = 0.205	817.465	1282	–
313.15 K, x1 = 0.2574	819.222	1277.6	–
313.15 K, x1 = 0.3054	820.932	1273.8	–
313.15 K, x1 = 0.4003	824.625	1265.5	–
313.15 K, x1 = 0.5004	829.064	1256.5	–
313.15 K, x1 = 0.6111	834.743	1245.4	–
313.15 K, x1 = 0.7032	840.294	1236.1	–
313.15 K, x1 = 0.8116	848	1225	–
313.15 K, x1 = 0.9048	855.903	1216.3	–

CCCCCCO [hexan-1-ol] + C1CCOC1
Settings	mass density [kg/m3]	speed of sound [m/s]	viscosity [mPa·s]
298.15 K, x2 = 0.0538	817.624	1301.1	3.778
298.15 K, x2 = 0.1144	820.377	1298.8	3.16
298.15 K, x2 = 0.1511	822.105	1297	2.887
298.15 K, x2 = 0.2009	824.537	1295	2.477
298.15 K, x2 = 0.256	827.327	1292.7	2.133
298.15 K, x2 = 0.3156	830.492	1291	1.855
298.15 K, x2 = 0.4199	836.41	1287.7	1.453
298.15 K, x2 = 0.5013	841.407	1285.1	1.199
298.15 K, x2 = 0.6029	848.183	1282.2	0.986
298.15 K, x2 = 0.7071	855.823	1279.3	0.786
298.15 K, x2 = 0.8042	863.667	1277.1	0.661
298.15 K, x2 = 0.9057	872.745	1276.4	0.559
303.15 K, x2 = 0.0538	813.958	1284.1	3.22
303.15 K, x2 = 0.1144	816.633	1281.5	2.737
303.15 K, x2 = 0.1511	818.311	1279.5	2.516
303.15 K, x2 = 0.2009	820.671	1277.3	2.148
303.15 K, x2 = 0.256	823.388	1275.1	1.901
303.15 K, x2 = 0.3156	826.467	1272.8	1.633
303.15 K, x2 = 0.4199	832.217	1269	1.325
303.15 K, x2 = 0.5013	837.071	1265.9	1.107
303.15 K, x2 = 0.6029	843.655	1262.2	0.904
303.15 K, x2 = 0.7071	851.067	1258.5	0.719
303.15 K, x2 = 0.8042	858.694	1255.6	0.619
303.15 K, x2 = 0.9057	867.506	1254	0.536
308.15 K, x2 = 0.0538	810.268	1267.1	2.728
308.15 K, x2 = 0.1144	812.863	1264	2.373
308.15 K, x2 = 0.1511	814.495	1261.9	2.13
308.15 K, x2 = 0.2009	816.788	1259.4	1.886
308.15 K, x2 = 0.256	819.426	1257.1	1.598
308.15 K, x2 = 0.3156	822.411	1254.3	1.422
308.15 K, x2 = 0.4199	827.995	1249.8	1.127
308.15 K, x2 = 0.5013	832.704	1246	0.95
308.15 K, x2 = 0.6029	839.095	1241.4	0.796
308.15 K, x2 = 0.7071	846.295	1236.7	0.64
308.15 K, x2 = 0.8042	853.69	1232.5	0.566
308.15 K, x2 = 0.9057	862.242	1230	0.47
313.15 K, x2 = 0.0538	806.544	1250.3	–
313.15 K, x2 = 0.1144	809.062	1246.9	–
313.15 K, x2 = 0.1511	810.645	1244.7	–
313.15 K, x2 = 0.2009	812.872	1242.7	–
313.15 K, x2 = 0.256	815.429	1239.8	–
313.15 K, x2 = 0.3156	818.321	1236.7	–
313.15 K, x2 = 0.4199	823.739	1231.7	–
313.15 K, x2 = 0.5013	828.306	1227.5	–
313.15 K, x2 = 0.6029	834.502	1222.5	–
313.15 K, x2 = 0.7071	841.483	1217	–
313.15 K, x2 = 0.8042	848.648	1212.4	–
313.15 K, x2 = 0.9057	856.935	1209	–

CCCCCCCCCCO [decan-1-ol] + C1CCOC1
Settings	mass density [kg/m3]	speed of sound [m/s]	viscosity [mPa·s]
298.15 K, x2 = 0.0503	827.6	1372.7	9.806
298.15 K, x2 = 0.1046	828.949	1368.8	8.47
298.15 K, x2 = 0.157	830.327	1365.1	7.201
298.15 K, x2 = 0.2022	831.593	1361.8	6.345
298.15 K, x2 = 0.253	833.093	1357.5	5.428
298.15 K, x2 = 0.3057	834.766	1352.6	4.609
298.15 K, x2 = 0.4094	838.49	1343.7	3.343
298.15 K, x2 = 0.5018	842.347	1334	2.503
298.15 K, x2 = 0.6038	847.354	1323.4	1.842
298.15 K, x2 = 0.7003	853.111	1312.4	1.366
298.15 K, x2 = 0.8004	860.53	1299.3	0.98
298.15 K, x2 = 0.9043	870.265	1286.4	0.691
303.15 K, x2 = 0.0503	824.137	1355.9	8.074
303.15 K, x2 = 0.1046	825.438	1351.7	7.037
303.15 K, x2 = 0.157	826.766	1348.3	6.17
303.15 K, x2 = 0.2022	827.998	1344.4	5.262
303.15 K, x2 = 0.253	829.453	1339.9	4.527
303.15 K, x2 = 0.3057	831.076	1335	3.958
303.15 K, x2 = 0.4094	834.656	1325.7	2.908
303.15 K, x2 = 0.5018	838.365	1315.6	2.095
303.15 K, x2 = 0.6038	843.203	1304.3	1.635
303.15 K, x2 = 0.7003	848.748	1292.6	1.224
303.15 K, x2 = 0.8004	855.869	1278.9	0.907
303.15 K, x2 = 0.9043	865.235	1264.9	0.649
308.15 K, x2 = 0.0503	820.661	1339.1	6.379
308.15 K, x2 = 0.1046	821.913	1335	5.67
308.15 K, x2 = 0.157	823.195	1331.1	4.969
308.15 K, x2 = 0.2022	824.389	1327	4.236
308.15 K, x2 = 0.253	825.796	1322.2	3.663
308.15 K, x2 = 0.3057	827.357	1317.2	3.249
308.15 K, x2 = 0.4094	830.825	1307.1	2.385
308.15 K, x2 = 0.5018	834.401	1296.8	1.738
308.15 K, x2 = 0.6038	839.036	1284.4	1.408
308.15 K, x2 = 0.7003	844.365	1271.8	1.04
308.15 K, x2 = 0.8004	851.199	1257.6	0.807
308.15 K, x2 = 0.9043	860.184	1241.5	0.58
313.15 K, x2 = 0.0503	817.16	1322.7	–
313.15 K, x2 = 0.1046	818.367	1318.3	–
313.15 K, x2 = 0.157	819.603	1314.4	–
313.15 K, x2 = 0.2022	820.753	1310.1	–
313.15 K, x2 = 0.253	822.116	1305.7	–
313.15 K, x2 = 0.3057	823.62	1300.1	–
313.15 K, x2 = 0.4094	826.953	1289.6	–
313.15 K, x2 = 0.5018	830.393	1278.9	–
313.15 K, x2 = 0.6038	834.849	1266.3	–
313.15 K, x2 = 0.7003	839.96	1253.2	–
313.15 K, x2 = 0.8004	846.506	1238.4	–
313.15 K, x2 = 0.9043	855.097	1221.6	–
